Results published in US6737383B1, “Herbicidal oxadiazolidines” (priority 1999, dated 2004).

Assays:
giant foxtail = experiment: Test B pre/postemergence giant foxtail; assay type: in vivo, Setaria faberii
How it was run: (§1)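 Response is a visual 0-to-10 score relative to untreated plants, where 0 means no effect and 10 means complete control, taken twelve to sixteen days after application. Treatments went onto soil at planting and onto foliage of 1- to 4-leaf plants, using a surfactant-containing non-phytotoxic solvent.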

wheat = experiment: Test B pre/postemergence wheat; assay type: in vivo, Triticum aestivum
How it was run: as §1

cocklebur = experiment: Test B pre/postemergence cocklebur; assay type: in vivo, Xanthium strumarium
How it was run: as §1

corn = experiment: Test B pre/postemergence corn; assay type: in vivo, Zea mays
How it was run: as §1

wild oat = experiment: Test B pre/postemergence wild oat; assay type: in vivo, Avena fatua
How it was run: as §1

blackgrass = experiment: Test B pre/postemergence blackgrass; assay type: in vivo, Alopecurus myosuroides
How it was run: as §1

purple nutsedge = experiment: Test B pre/postemergence purple nutsedge; assay type: in vivo, Cyperus rotundus
How it was run: as §1

bedstraw = experiment: Test B pre/postemergence bedstraw; assay type: in vivo, Galium aparine
How it was run: as §1

pigweed = experiment: Test B pre/postemergence pigweed; assay type: in vivo, Amaranthus retroflexus
How it was run: as §1

rape = experiment: Test B pre/postemergence rape; assay type: in vivo, Brassica napus
How it was run: as §1

velvetleaf = experiment: Test B pre/postemergence velvetleaf; assay type: in vivo, Abutilon theophrasti
How it was run: as §1

soybean = experiment: Test B pre/postemergence soybean; assay type: in vivo, Glycine max
How it was run: as §1

morningglory = experiment: Test B pre/postemergence morningglory; assay type: in vivo, Ipomoea hederacea
How it was run: as §1

crabgrass = experiment: Test B pre/postemergence crabgrass; assay type: in vivo, Digitaria sanguinalis
How it was run: as §1

surinam grass = experiment: Test B pre/postemergence surinam grass; assay type: in vivo, Brachiaria decumbens
How it was run: as §1

[1] = Preemergence, Rate 62 g/ha, scale of 0 to 10 where 0 is no effect and 10 is complete control
[2] = Preemergence, Rate 500 g/ha, scale of 0 to 10 where 0 is no effect and 10 is complete control
[3] = Rate 62 g/ha, Postemergence, scale of 0 to 10 where 0 is no effect and 10 is complete control
[4] = Rate 125 g/ha, Postemergence, scale 0 to 10
[5] = Rate 125 g/ha, Preemergence, scale of 0 to 10 where 0 is no effect and 10 is complete control
[6] = Rate 500 g/ha, Postemergence, scale 0 to 10, 0 no effect, 10 complete control
[7] = Preemergence, Rate 250 g/ha, scale of 0 to 10 where 0 is no effect and 10 is complete control

COc1cc(C)cc(C)c1-n1c(=O)on(C(=O)N(c2ccc(F)cc2F)C(C)C)c1=O [Compound 223]
Giant foxtail plant response rating (giant foxtail; [1]): 7
Plant response rating, Giant foxtail (giant foxtail; [2]): 9
Giant foxtail plant response rating (giant foxtail; [3]): 0
Giant foxtail plant response rating (giant foxtail; [4]): 0
Giant foxtail plant response rating (giant foxtail; [5]): 9
Plant response rating (0 to 10; 0 is no effect, 10 is complete control), Giant foxtail (giant foxtail; Rate 250 g/ha, Postemergence): 0
Giant foxtail plant response rating (giant foxtail; [6]): 1
Wheat plant response rating (wheat; [1]): 0
Wheat plant response rating (wheat; [7]): 0
Plant response rating, Wheat (wheat; [2]): 0
Wheat plant response rating (wheat; [3]): 0
Wheat plant response rating (wheat; [4]): 0
Wheat plant response rating (wheat; [5]): 0
Plant response rating (0 to 10; 0 is no effect, 10 is complete control), Wheat (wheat; Rate 250 g/ha, Postemergence): 0
Wheat plant response rating (wheat; [6]): 0
Cocklebur plant response rating (cocklebur; [1]): 0
Cocklebur plant response rating (cocklebur; [7]): 0
Plant response rating, Cocklebur (cocklebur; [2]): 0
Cocklebur plant response rating (cocklebur; [3]): 0
Cocklebur plant response rating (cocklebur; [4]): 0
Cocklebur plant response rating (cocklebur; [5]): 0
Plant response rating (0 to 10; 0 is no effect, 10 is complete control), Cocklebur (cocklebur; Rate 250 g/ha, Postemergence): 0
Cocklebur plant response rating (cocklebur; [6]): 2
Corn plant response rating (corn; [1]): 0
Corn plant response rating (corn; [7]): 0
Plant response rating, Corn (corn; [2]): 0
Corn plant response rating (corn; [3]): 0
Corn plant response rating (corn; [4]): 0
Corn plant response rating (corn; [5]): 0
Plant response rating (0 to 10; 0 is no effect, 10 is complete control), Corn (corn; Rate 250 g/ha, Postemergence): 0
Corn plant response rating (corn; [6]): 0
Wild oats plant response rating (wild oat; [7]): 2
Plant response rating, Wild oats (wild oat; [2]): 4
Wild oats plant response rating (wild oat; [3]): 0
Wild oats plant response rating (wild oat; [4]): 0
Wild oats plant response rating (wild oat; [5]): 0
Plant response rating (0 to 10; 0 is no effect, 10 is complete control), Wild oats (wild oat; Rate 250 g/ha, Postemergence): 0
Wild oats plant response rating (wild oat; [6]): 2
Blackgrass plant response rating (blackgrass; [1]): 0
Blackgrass plant response rating (blackgrass; [7]): 4
Plant response rating, Blackgrass (blackgrass; [2]): 5
Blackgrass plant response rating (blackgrass; [3]): 0
Blackgrass plant response rating (blackgrass; [4]): 0
Blackgrass plant response rating (blackgrass; [5]): 1
Plant response rating (0 to 10; 0 is no effect, 10 is complete control), Blackgrass (blackgrass; Rate 250 g/ha, Postemergence): 3
Blackgrass plant response rating (blackgrass; [6]): 1
Nutsedge plant response rating (purple nutsedge; [1]): 0
Nutsedge plant response rating (purple nutsedge; [3]): 0
Nutsedge plant response rating (purple nutsedge; [4]): 0
Nutsedge plant response rating (purple nutsedge; [5]): 0
Plant response rating (0 to 10; 0 is no effect, 10 is complete control), Nutsedge (purple nutsedge; Rate 250 g/ha, Postemergence): 0
Nutsedge plant response rating (purple nutsedge; [6]): 0
Bedstraw plant response rating (bedstraw; [1]): 0
Bedstraw plant response rating (bedstraw; [7]): 0
Plant response rating, Bedstraw (bedstraw; [2]): 3
Bedstraw plant response rating (bedstraw; [3]): 3
Bedstraw plant response rating (bedstraw; [4]): 3
Bedstraw plant response rating (bedstraw; [5]): 0
Plant response rating (0 to 10; 0 is no effect, 10 is complete control), Bedstraw (bedstraw; Rate 250 g/ha, Postemergence): 4
Bedstraw plant response rating (bedstraw; [6]): 5
Redroot pigweed plant response rating (pigweed; [1]): 0
Redroot pigweed plant response rating (pigweed; [7]): 7
Plant response rating, Redroot pigweed (pigweed; [2]): 7
Redroot pigweed plant response rating (pigweed; [3]): 0
Redroot pigweed plant response rating (pigweed; [4]): 2
Redroot pigweed plant response rating (pigweed; [5]): 0
Plant response rating (0 to 10; 0 is no effect, 10 is complete control), Redroot pigweed (pigweed; Rate 250 g/ha, Postemergence): 3
Redroot pigweed plant response rating (pigweed; [6]): 5
Rape plant response rating (rape; [1]): 0
Rape plant response rating (rape; [7]): 0
Plant response rating, Rape (rape; [2]): 0
Rape plant response rating (rape; [3]): 0
Rape plant response rating (rape; [4]): 0
Rape plant response rating (rape; [5]): 0
Plant response rating (0 to 10; 0 is no effect, 10 is complete control), Rape (rape; Rate 250 g/ha, Postemergence): 0
Rape plant response rating (rape; [6]): 0
Velvetleaf plant response rating (velvetleaf; [1]): 0
Velvetleaf plant response rating (velvetleaf; [7]): 0
Plant response rating, Velvetleaf (velvetleaf; [2]): 0
Velvetleaf plant response rating (velvetleaf; [3]): 0
Velvetleaf plant response rating (velvetleaf; [4]): 0
Velvetleaf plant response rating (velvetleaf; [5]): 0
Plant response rating (0 to 10; 0 is no effect, 10 is complete control), Velvetleaf (velvetleaf; Rate 250 g/ha, Postemergence): 2
Velvetleaf plant response rating (velvetleaf; [6]): 3
Soybean plant response rating (soybean; [1]): 0
Soybean plant response rating (soybean; [7]): 0
Plant response rating, Soybean (soybean; [2]): 0
Soybean plant response rating (soybean; [3]): 3
Soybean plant response rating (soybean; [4]): 3
Soybean plant response rating (soybean; [5]): 0
Plant response rating (0 to 10; 0 is no effect, 10 is complete control), Soybean (soybean; Rate 250 g/ha, Postemergence): 3
Soybean plant response rating (soybean; [6]): 4
Morningglory plant response rating (morningglory; [1]): 0
Morningglory plant response rating (morningglory; [7]): 1
Plant response rating, Morningglory (morningglory; [2]): 1
Morningglory plant response rating (morningglory; [3]): 1
Morningglory plant response rating (morningglory; [4]): 3
Morningglory plant response rating (morningglory; [5]): 1
Plant response rating (0 to 10; 0 is no effect, 10 is complete control), Morningglory (morningglory; Rate 250 g/ha, Postemergence): 4
Morningglory plant response rating (morningglory; [6]): 6
Crabgrass plant response rating (crabgrass; [1]): 4
Crabgrass plant response rating (crabgrass; [7]): 7
Plant response rating, Crabgrass (crabgrass; [2]): 9
Crabgrass plant response rating (crabgrass; [3]): 0
Crabgrass plant response rating (crabgrass; [4]): 0
Crabgrass plant response rating (crabgrass; [5]): 6
Plant response rating (0 to 10; 0 is no effect, 10 is complete control), Crabgrass (crabgrass; Rate 250 g/ha, Postemergence): 1
Crabgrass plant response rating (crabgrass; [6]): 3
B. signalgrass plant response rating (surinam grass; [1]): 0
B. signalgrass plant response rating (surinam grass; Preemergence, Rate 250 g/ha, scale 0 to 10, 0 is no effect, 10 is complete control): 3
Plant response rating, B. signalgrass (surinam grass; [2]): 4
B. signalgrass plant response rating (surinam grass; [3]): 0
B. signalgrass plant response rating (surinam grass; Rate 125 g/ha, Postemergence, scale 0 (no effect) to 10 (complete control)): 0
B. signalgrass plant response rating (surinam grass; [5]): 0
Plant response rating (0 to 10; 0 is no effect, 10 is complete control), B. signalgrass (surinam grass; Rate 250 g/ha, Postemergence): 0
B. signalgrass plant response rating (surinam grass; [6]): 0
